Values after ≈ are worked out from the molar mass of the structure shown.
Assays:
[1] = target: T1, c-Met (Homo sapiens, UniProt P08581); experiment: Fluorescence polarization assay on the kinase activity of c-Met; format: biochemical; set-up: The c-Met kinase domain consists amino acid 1046-1390 of the c-Met protein; made in house; host or cells: Sf9 insect cells with baculovirus; conditions: 6H-TEV-cMet, poly Gly4Tyr substrate, 10 μM ATP; read-out: c-Met FP Enz IC50
From the text: A fluorescence polarization assay (FP) was developed for screening of compounds that decreases the kinase activity of c-Met.
A protein (6H-TEV-cMet) comprising c-Met kinase domain was cloned, recombinantly expressed and purified following a procedure similar to that as described in Example A. The protein comprises a His tag consisting of six histidines at its N-terminal, a TEV protease cleavage site, and the c-Met kinase domain. The c-Met kinase domain consists amino acid 1046-1390 of the c-Met protein as listed in GenBank protein accession number P08581.
For the c-Met kinase assay, the 6H-TEV-cMet was used as the enzyme, and a poly Gly4Tyr peptide (Sigma, P-0275) was used as the substrate. The kinase reaction was performed in a volume of 10 μl in HE microplates (LJL Biosystems). Assay conditions were as follows: 100 mM HEPES pH 7.5, 0.01% Tween-20, 1 mM DTT, 5 mM MgCl2, 10 μM ATP, 10 μg/ml poly Gly4Tyr. The kinase reaction was initiated upon addition of 10 nM 6H-TEV-cMet. After a 12 minute incubation at room temperature the reaction was terminated with […] 50 mM EDTA.
Phosphorylation of the peptide substrate was detected with PanVera Tyrosine Kinase Assay Kit, Green reagents (P2837). Five minutes after the addition of EDTA, 10 μl of antibody/tracer mix (Pan Vera reagents, 1:1:3 dilution of antibody: Tracer: FP dilution buffer, Cat. # P2837) was added to each well. Plates were allowed to incubate for 30 minutes at room temperature and fluorescence polarization was measured with an LJL Analyst instrument (Molecular Devices; Sunnyvale, Calif.) with excitation=485 nm filter and emission=530 nm filter. IC50 values were calculated from triplicate sets of data using Graphpad Prism software (Graphpad Software; San Diego, Calif.).
Target sequence in this assay (P08581 1046-1390): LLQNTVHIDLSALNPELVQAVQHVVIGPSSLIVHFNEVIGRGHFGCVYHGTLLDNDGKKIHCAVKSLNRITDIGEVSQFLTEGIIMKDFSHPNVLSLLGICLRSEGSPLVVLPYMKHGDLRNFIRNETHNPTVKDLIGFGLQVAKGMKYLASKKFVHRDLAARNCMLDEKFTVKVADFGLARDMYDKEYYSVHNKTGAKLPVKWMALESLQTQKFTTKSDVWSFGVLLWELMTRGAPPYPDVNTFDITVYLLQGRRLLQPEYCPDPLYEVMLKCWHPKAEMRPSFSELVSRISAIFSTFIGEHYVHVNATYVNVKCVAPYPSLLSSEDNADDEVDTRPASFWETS

[2] = Aqueous solubility assay; conditions: water with 0.4% DMSO, kinetic from dmso stock
Description: Water, PBS and aqueous HCl at pH2 having a final DMSO content of 0.4%, with the final DMSO concentration reaching 40 μM. Samples were placed in the incubator and shaken for 15 minutes.

[3] = target: T1, c-Met; experiment: Delfia autophosphorylation kinase assay on the c-Met; format: biochemical; set-up: The purified His6 tagged cytoplasmic domain of c-Met was diluted to a concentration of 500 ng/ml; made in house; host or cells: Sf9 insect cells with recombinant baculovirus; Large-scale expression and purification were done by the contract lab Pan Vera; conditions: His6 tagged cytoplasmic domain of c-Met, 1 μM ATP; read-out: c-Met Delfia Autophos IC50
Description: This example describes the cloning, expression, and purification of the cytoplasmic domain of c-Met which has the c-Met receptor tyrosine kinase activity.
A DELFIA time resolved fluorescence assay was developed for screening of compounds that decreases the autophosphorylation thus the kinase activity of c-Met.
The DELFIA assay is non-radioactive. The autophophorylation of the c-Met is measured by an anti-phosphotyrosine antibody coupled to an Europium tag.
A major advantage of this format is that it allowed for the development of an autophosphorylation assay using Ni-chelate plates which bind the hexa-his tag on the recombinant Met kinase. Autophosphorylation assay allows to use a known substrate, Met kinase itself, for the phosphorylation. The DELFIA Met autophosphorylation assay is very sensitive with a signal to noise ratio in excess of 50:1.
The assay procedure for screening is as follows. The purified His6 tagged cytoplasmic domain of c-Met was diluted to a concentration of 500 ng/ml in enzyme dilution buffer (50 mM Tris-HCl, pH8.0, 0.1% BSA) and dispensed to assay plates at a volume of 50 μl per well. Black opaque HisGrab Nickel coated 96 well plates (Pierce, Rockford, Ill.) were selected to run the assay. Next, 2.5 μl of compound in 40% DMSO was added to test wells, 2.5 μl of 40% DMSO only was added to the negative control wells. The autophosphorylation reaction was initiated upon the addition of 50 μl of reaction buffer, 50 mM Tris-HCl, pH 8.0, 10 mM MgCl2, 0.1 mM Na3VO4, 1 mM DTT, 1 μM ATP. Plates were incubated at room temperature for 1 hour followed by 2 washes with 200 μl/well of PBS. Europium conjugated anti-phosphotyrosine antibody, Eu-PY20 from Perkin Elmer was diluted to 50 ng/ml in Delfia AB buffer (Perkin Elmer, Boston, Mass.), added to the 96 well assay plates at a volume of […], and incubated at room temperature for 2 hours. Assay plates were then washed 4 times each with 200 μl/well of Delfia wash buffer (Perkin Elmer). After the final wash 150 μl of Delfia Enhancement solution (Perkin Elmer) was added to each well of the assay plate and incubated at room temperature for 1 hour. Plates were read on an LJL Analyst instrument (Molecular Devices; Sunnyvale, Calif.) with filter settings of 360 excitation, 620 emission, and 410 dichroic. IC50 values were calculated using Graphpad Prism software (Graphpad Software; San Diego, Calif.).
Target sequence in this assay (P08581 956-1390 limits assumed): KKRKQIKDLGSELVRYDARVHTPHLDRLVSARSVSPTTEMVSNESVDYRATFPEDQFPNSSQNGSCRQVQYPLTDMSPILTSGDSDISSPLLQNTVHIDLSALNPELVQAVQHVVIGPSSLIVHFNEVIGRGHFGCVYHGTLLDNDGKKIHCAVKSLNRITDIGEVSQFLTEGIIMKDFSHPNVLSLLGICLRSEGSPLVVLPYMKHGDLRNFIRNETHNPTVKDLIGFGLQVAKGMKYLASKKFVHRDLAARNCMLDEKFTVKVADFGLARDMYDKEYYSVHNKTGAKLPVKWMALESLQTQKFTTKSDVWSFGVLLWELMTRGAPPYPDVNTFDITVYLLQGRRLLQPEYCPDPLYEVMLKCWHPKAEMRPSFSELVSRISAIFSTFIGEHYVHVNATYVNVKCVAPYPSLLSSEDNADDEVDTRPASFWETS

IC50 [1]: 10 nM
solubility at 15 min [2]: 41.1 µM (≈ 21.1 µg/mL)
IC50 [3]: 1 nM
SMILES: CN(C)CCNC(=O)c1cc(Br)c2c(c1)NC(=O)/C2=N\NC(=O)Cc1ccc2c(c1)CCO2 [Example 8, 4-Bromo-3-[(2-2,3-dihydro-benzofuran-5-yl-acetyl)-hydrazono]-2-oxo-2,3-dihydro-1H-indole-6-carboxylic acid (2-dimethylamino-ethyl)-amide]

From patent US7662824B2, “Acylhydrazones as kinase modulators” (Janssen Pharmaceutica NV, priority 2005, dated 2010)
